Data from US9681664B2, “Macrocyclic picolinamides as fungicides” (Dow Agrosciences LLC, priority 2012, dated 2017).
Where two headings read alike, the source gives them in different places.

Legend:
[1] = test system: Mycosphaerella graminicola; Anamorph: Septoria tritici; experiment: Leaf blotch of wheat (SEPTTR) disease control on wheat seedlings; assay type: in vivo; conditions: Zymoseptoria tritici, High volume application, 100 ppm
Procedure: Technical grades of materials were dissolved in acetone, which were then mixed with nine volumes of water containing 110 ppm Triton X-100. The fungicide solutions were applied onto wheat seedlings using an automated booth sprayer to run-off. All sprayed plants were allowed to air dry prior to further handling. All fungicides were evaluated using the aforementioned method for their activity vs. all target diseases. Wheat leaf blotch and brown rust activity were also evaluated using track spray applications, in which case the fungicides were formulated as EC formulations, containing 0.1% Trycol 5941 in the spray solutions. Wheat plants (variety Yuma) were grown from seed in a greenhouse in 50% mineral soil/50% soil-less Metro mix until the first leaf was fully emerged, with 7-10 seedlings per pot. These plants were inoculated with an aqueous spore suspension of Septoria tritici either prior to or after fungicide treatments. After inoculation the plants were kept in 100% relative humidity (one day in a dark dew chamber followed by two to three days in a lighted dew chamber at 20° C.) to permit spores to germinate and infect the leaf. The plants were then transferred to a greenhouse set at 20° C. for disease to develop. When disease symptoms were fully expressed on the 1st leaves of untreated plants, infection levels were assessed on a scale of 0 to 100 percent disease severity. Percent disease control was calculated using the ratio of disease severity on treated plants relative to untreated plants.

[2] = test system: Puccinia triticina; Synonym: Puccinia recondite f. sp. tritici; experiment: Wheat brown rust (PUCCRT) disease control on wheat seedlings; assay type: in vivo; conditions: Puccinia triticina, High volume application, 100 ppm
Procedure: Technical grades of materials were dissolved in acetone, which were then mixed with nine volumes of water containing 110 ppm Triton X-100. The fungicide solutions were applied onto wheat seedlings using an automated booth sprayer to run-off. All sprayed plants were allowed to air dry prior to further handling. All fungicides were evaluated using the aforementioned method for their activity vs. all target diseases. Wheat leaf blotch and brown rust activity were also evaluated using track spray applications, in which case the fungicides were formulated as EC formulations, containing 0.1% Trycol 5941 in the spray solutions. Wheat plants (variety Yuma) were grown from seed in a greenhouse in 50% mineral soil/50% soil-less Metro mix until the first leaf was fully emerged, with 7-10 seedlings per pot. These plants were inoculated with an aqueous spore suspension of Puccinia triticina either prior to or after fungicide treatments. After inoculation the plants were kept in a dark dew room at 22° C. with 100% relative humidity overnight to permit spores to germinate and infect the leaf. The plants were then transferred to a greenhouse set at 24° C. for disease to develop. Fungicide formulation, application and disease assessment followed the procedures as described in the Example A.

[3] = 24 h, 1 Day Protectant, read-out: SEPTTR 1DP disease control
[4] = 72 h, 3 Day Curative, read-out: SEPTTR 3DC disease control
[5] = 24 h, 1 Day Protectant, read-out: PUCCRT 1DP disease control
[6] = 72 h, 3 Day Curative, read-out: PUCCRT 3DC disease control

Compound	pest or weed control at 100 ppm [1, 3] [%]	pest or weed control at 100 ppm [1, 4] [%]	pest or weed control at 100 ppm [2, 5] [%]	pest or weed control at 100 ppm [2, 6] [%]
CCc1ccnc(C(=O)N[C@H]2CCC[C@H](OCC(C)C)[C@@H](OCCC(C)OC)[C@H](C)OC2=O)c1O (stereo partly drawn) [F71]	0 to 80	0 to 80	0 to 80	80 to 100
COc1ccnc(C(=O)N[C@H]2CCC[C@H](OCC(C)C)[C@@H](OCCC(C)OC)[C@H](C)OC2=O)c1OCOC(C)=O (stereo partly drawn) [F72]	80 to 100	80 to 100	80 to 100	80 to 100
COc1ccnc(C(=O)N[C@H]2CCC[C@H](OC3CCCC3)[C@@H](Oc3ccccc3)[C@H](C)OC2=O)c1O [F74]	80 to 100	80 to 100	80 to 100	80 to 100
COc1ccnc(C(=O)N[C@H]2CCC[C@H](Oc3ccccc3)[C@@H](OC3CCCC3)[C@H](C)OC2=O)c1O [F75]	80 to 100	80 to 100	80 to 100	80 to 100
COc1ccnc(C(=O)N[C@H]2CCC[C@H](OCC(C)C)[C@@H](Oc3ccc(C)cc3)[C@H](C)OC2=O)c1O [F82]	< 0	0 to 80	0 to 80	0 to 80
COc1ccnc(C(=O)N[C@H]2CCC[C@H](OCC(C)C)[C@@H](OCCC(C)OC)[C@H](C)OC2=O)c1OC(C)=O (stereo partly drawn) [F83]	80 to 100	80 to 100	80 to 100	80 to 100
COc1ccnc(C(=O)N[C@H]2CCC[C@H](OC(=O)C3CCCC3)[C@@H](OC(=O)C3CCCC3)[C@H](C)OC2=O)c1O [F84]	0 to 80	0 to 80	0 to 80	0 to 80
COc1ccnc(C(=O)N[C@H]2CCC[C@H](OCCCC(F)(F)F)[C@@H](OCCCC(F)(F)F)[C@H](C)OC2=O)c1O [F85]	< 0	0 to 80	< 0	0 to 80
COc1ccnc(C(=O)N[C@H]2CCC[C@H](OCC(C)C)[C@@H](Oc3ccc(C)cc3)[C@H](C)OC2=O)c1OCOC(C)=O [F86]	80 to 100	80 to 100	80 to 100	80 to 100
COc1ccnc(C(=O)N[C@H]2CCC[C@H](OCCCC(F)(F)F)[C@@H](OCCCC(F)(F)F)[C@H](C)OC2=O)c1OCOC(C)=O [F87]	80 to 100	80 to 100	80 to 100	80 to 100
COc1ccnc(C(=O)N[C@H]2CCC[C@H](OC(=O)C3CCCC3)[C@@H](OC(=O)C3CCCC3)[C@H](C)OC2=O)c1OCOC(C)=O [F88]	80 to 100	80 to 100	80 to 100	80 to 100
CCCCCO[C@H]1[C@H](C)OC(=O)[C@@H](NC(=O)c2nccc(OC)c2OC(C)=O)CCC[C@@H]1OCC(C)C [F89]	80 to 100	80 to 100	80 to 100	80 to 100
COc1ccnc(C(=O)N[C@H]2CCC[C@H](OCCCC(F)(F)F)[C@@H](OCCCC(F)(F)F)[C@H](C)OC2=O)c1OC(C)=O [F90]	80 to 100	80 to 100	80 to 100	80 to 100
COc1ccnc(C(=O)N[C@H]2CCC[C@H](OC(=O)C3CCCC3)[C@@H](OC(=O)C3CCCC3)[C@H](C)OC2=O)c1OC(C)=O [F91]	80 to 100	80 to 100	80 to 100	80 to 100
COc1ccnc(C(=O)N[C@H]2CCC[C@H](OCC(C)C)[C@@H](Oc3ccc(C)cc3)[C@H](C)OC2=O)c1OC(C)=O [F92]	80 to 100	80 to 100	80 to 100	80 to 100
CCCO[C@H]1[C@H](C)OC(=O)[C@@H](NC(=O)c2nccc(OC)c2O)CCC[C@@H]1Oc1ccccc1 [F93]	80 to 100	80 to 100	80 to 100	80 to 100
CCCCCO[C@H]1[C@H](C)OC(=O)[C@@H](NC(=O)c2nccc(OC)c2O)CCC[C@@H]1Oc1ccccc1 [F94]	0 to 80	0 to 80	0 to 80	< 0
CCCCCO[C@H]1[C@H](C)OC(=O)[C@@H](NC(=O)c2nccc(OC)c2OCOC(C)=O)CCC[C@@H]1Oc1ccccc1 [F96]	80 to 100	80 to 100	80 to 100	80 to 100
CCCO[C@H]1[C@H](C)OC(=O)[C@@H](NC(=O)c2nccc(OC)c2OCOC(=O)C(C)C)CCC[C@@H]1Oc1ccccc1 [F97]	80 to 100	80 to 100	80 to 100	80 to 100
CCCCCO[C@H]1[C@H](C)OC(=O)[C@@H](NC(=O)c2nccc(OC)c2OCOC(=O)C(C)C)CCC[C@@H]1Oc1ccccc1 [F98]	80 to 100	80 to 100	80 to 100	80 to 100
COc1ccnc(C(=O)N[C@H]2CCC[C@H](OC(=O)C3CCCC3)[C@@H](OC(=O)C3CCCC3)[C@H](C)OC2=O)c1OCOC(=O)C(C)C [F99]	80 to 100	80 to 100	80 to 100	80 to 100
COc1ccnc(C(=O)N[C@H]2CCC[C@H](OCCCC(F)(F)F)[C@@H](OCCCC(F)(F)F)[C@H](C)OC2=O)c1OCOC(=O)C(C)C [F100]	80 to 100	80 to 100	80 to 100	80 to 100
COc1ccnc(C(=O)N[C@H]2CCC[C@H](OCC(C)C)[C@@H](Oc3ccc(C)cc3)[C@H](C)OC2=O)c1OCOC(=O)C(C)C [F101]	80 to 100	80 to 100	80 to 100	80 to 100
CCCO[C@H]1[C@H](C)OC(=O)[C@@H](NC(=O)c2nccc(OC)c2OC(C)=O)CCC[C@@H]1Oc1ccccc1 [F102]	80 to 100	80 to 100	80 to 100	80 to 100
CCCCCO[C@H]1[C@H](C)OC(=O)[C@@H](NC(=O)c2nccc(OC)c2OC(C)=O)CCC[C@@H]1Oc1ccccc1 [F103]	80 to 100	80 to 100	80 to 100	80 to 100
COc1ccnc(C(=O)N[C@H]2CCC[C@H](Oc3ccccc3)[C@@H](OC/C=C/C(F)(F)F)[C@H](C)OC2=O)c1O [F104]	80 to 100	< 0	80 to 100	< 0
COc1ccnc(C(=O)N[C@H]2CCC[C@H](Oc3ccccc3)[C@@H](OCCCC(F)(F)F)[C@H](C)OC2=O)c1O [F105]	80 to 100	0 to 80	80 to 100	< 0
COc1ccnc(C(=O)N[C@H]2CCC[C@H](Oc3ccccc3)[C@@H](OC/C=C/C(F)(F)F)[C@H](C)OC2=O)c1OCOC(C)=O [F106]	80 to 100	80 to 100	80 to 100	80 to 100
COc1ccnc(C(=O)N[C@H]2CCC[C@H](Oc3ccccc3)[C@@H](OCCCC(F)(F)F)[C@H](C)OC2=O)c1OCOC(C)=O [F107]	80 to 100	80 to 100	80 to 100	80 to 100
COc1ccnc(C(=O)N[C@H]2CCC[C@H](Oc3ccccc3)[C@@H](OCCCC(F)(F)F)[C@H](C)OC2=O)c1OCOC(=O)C(C)C [F108]	80 to 100	80 to 100	80 to 100	80 to 100
